Laboratory results reported in US5876946A, “High-throughput assay” (Pharmacopeia, Inc., priority 1997, dated 1999).

Assays:
[1] = biological target: T1, neurokinin-2 receptor (NK2R/CHO cells) (Homo sapiens, UniProt P21452); experiment: Displacement of Cy5-NKA bound to NK2R/CHO cells by SR48,968; format: binding
T1 construct: expressed in transfected cells; host or cells: CHO cells (NK2R/CHO)
T1 sequence (P21452 1-398): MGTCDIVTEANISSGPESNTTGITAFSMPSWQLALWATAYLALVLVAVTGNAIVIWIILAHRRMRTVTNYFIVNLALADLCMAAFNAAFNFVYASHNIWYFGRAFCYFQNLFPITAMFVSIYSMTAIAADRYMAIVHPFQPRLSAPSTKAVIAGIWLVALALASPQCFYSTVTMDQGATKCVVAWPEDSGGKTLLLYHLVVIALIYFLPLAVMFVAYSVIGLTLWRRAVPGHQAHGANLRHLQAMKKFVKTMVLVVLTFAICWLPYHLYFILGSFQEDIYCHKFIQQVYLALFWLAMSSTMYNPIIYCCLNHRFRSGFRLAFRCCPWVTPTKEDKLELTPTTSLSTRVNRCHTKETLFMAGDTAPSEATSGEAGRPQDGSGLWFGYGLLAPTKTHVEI
Protocol: (a) Cells expressing neurokinin-2 receptor (NK2R/CHO) were obtained.
A culture of NK2R/CHO cells, near confluence, was washed with 12 mL DPBS(Mg^+2 & Ca^+2 free), trypsinized by adding trypsin (2 mL/T-25 flask), incubating at 37° C. for about 5 min, then quenching with 10 mL media. Cells were then counted, and diluted to the desired final concentration of cells (5,000 cells/25 μL). […] The plate was covered and wrapped in aluminum foil to protect from light and left to shake for 1 hr at room temperature. For each sample, 25 μL was removed, placed in an IMAGN 2000™ capillary, and read using IMAGN™ software (Biometric Imaging, Inc.) The sample was allowed to settle until the cells rested on the bottom of the well. The time require for settling was typically 10 minutes.
SR-48,968 is a known inhibitor of the binding of NKA neurokinin 2 receptor.
"Max" and "min" refer to the maximum and minimum fluorescence for the relevant value.
% Control=((Value-Min)/(Max-Min))×100

IL-8 receptor = experiment: conventional [^125 I]IL-8 ligand displacement assay; format: binding

Compound | IC50 [1] [nM] | estimated Ki ([1]; displacement of Cy5-NKA) [nM] | Hill coefficient ([1]; displacement of Cy5-NKA by SR48.968) | Ki (IL-8 receptor) [nM]
CC(=O)NC1(c2ccccc2)CCN(CCC(CN(C)C(=O)c2ccccc2)c2ccc(Cl)c(Cl)c2)CC1 (stereo not shown) [SR48.968] | 0.575 | ~0.29 | 0.996 | –
hIL(S72C)-Cy5: Human interleukin-8, Ser72→Cys mutant (hIL-8(S72C)), labelled with monofunctional Cy5-iodoacetamide | – | – | – | 2
